The values that follow come from patent US11666558B2, “Methods of treating intraocular pressure with activators of Tie-2” (EyePoint Pharmaceuticals, Inc., priority 2015, dated 2023).

Some results are limits rather than exact numbers.

By IC50 is commonly meant the point on the concentration scale where inhibition reaches its midpoint. A lower IC50 goes with greater potency in that assay.

For assay [1], the target named is HPTP-β (Homo sapiens (Human), UniProt P23467). Briefly: HPTP-β inhibitory activity (IC50). In kind it is biochemical.
Assay [2] concerns intraocular pressure. Briefly: Intraocular pressure, Compound 1 with sham or ranibizumab, Months 1-3 (FIG. 2, TABLE 1). In kind it is in vivo. How it is done:
The difference in IOP was determined relative to a pre-treatment baseline (Base) at months 1, 2, and 3 (M1-M3). Intraocular pressure was determined in the study eye in millimeters of mercury (mmHg). […] The difference in IOP was determined relative to a pre-treatment Baseline at Months 1, 2 and 3. Intraocularpressure was determined in the study eye/fellow eye in mmHg.

Chain of HPTP-β (P23467 23-1997): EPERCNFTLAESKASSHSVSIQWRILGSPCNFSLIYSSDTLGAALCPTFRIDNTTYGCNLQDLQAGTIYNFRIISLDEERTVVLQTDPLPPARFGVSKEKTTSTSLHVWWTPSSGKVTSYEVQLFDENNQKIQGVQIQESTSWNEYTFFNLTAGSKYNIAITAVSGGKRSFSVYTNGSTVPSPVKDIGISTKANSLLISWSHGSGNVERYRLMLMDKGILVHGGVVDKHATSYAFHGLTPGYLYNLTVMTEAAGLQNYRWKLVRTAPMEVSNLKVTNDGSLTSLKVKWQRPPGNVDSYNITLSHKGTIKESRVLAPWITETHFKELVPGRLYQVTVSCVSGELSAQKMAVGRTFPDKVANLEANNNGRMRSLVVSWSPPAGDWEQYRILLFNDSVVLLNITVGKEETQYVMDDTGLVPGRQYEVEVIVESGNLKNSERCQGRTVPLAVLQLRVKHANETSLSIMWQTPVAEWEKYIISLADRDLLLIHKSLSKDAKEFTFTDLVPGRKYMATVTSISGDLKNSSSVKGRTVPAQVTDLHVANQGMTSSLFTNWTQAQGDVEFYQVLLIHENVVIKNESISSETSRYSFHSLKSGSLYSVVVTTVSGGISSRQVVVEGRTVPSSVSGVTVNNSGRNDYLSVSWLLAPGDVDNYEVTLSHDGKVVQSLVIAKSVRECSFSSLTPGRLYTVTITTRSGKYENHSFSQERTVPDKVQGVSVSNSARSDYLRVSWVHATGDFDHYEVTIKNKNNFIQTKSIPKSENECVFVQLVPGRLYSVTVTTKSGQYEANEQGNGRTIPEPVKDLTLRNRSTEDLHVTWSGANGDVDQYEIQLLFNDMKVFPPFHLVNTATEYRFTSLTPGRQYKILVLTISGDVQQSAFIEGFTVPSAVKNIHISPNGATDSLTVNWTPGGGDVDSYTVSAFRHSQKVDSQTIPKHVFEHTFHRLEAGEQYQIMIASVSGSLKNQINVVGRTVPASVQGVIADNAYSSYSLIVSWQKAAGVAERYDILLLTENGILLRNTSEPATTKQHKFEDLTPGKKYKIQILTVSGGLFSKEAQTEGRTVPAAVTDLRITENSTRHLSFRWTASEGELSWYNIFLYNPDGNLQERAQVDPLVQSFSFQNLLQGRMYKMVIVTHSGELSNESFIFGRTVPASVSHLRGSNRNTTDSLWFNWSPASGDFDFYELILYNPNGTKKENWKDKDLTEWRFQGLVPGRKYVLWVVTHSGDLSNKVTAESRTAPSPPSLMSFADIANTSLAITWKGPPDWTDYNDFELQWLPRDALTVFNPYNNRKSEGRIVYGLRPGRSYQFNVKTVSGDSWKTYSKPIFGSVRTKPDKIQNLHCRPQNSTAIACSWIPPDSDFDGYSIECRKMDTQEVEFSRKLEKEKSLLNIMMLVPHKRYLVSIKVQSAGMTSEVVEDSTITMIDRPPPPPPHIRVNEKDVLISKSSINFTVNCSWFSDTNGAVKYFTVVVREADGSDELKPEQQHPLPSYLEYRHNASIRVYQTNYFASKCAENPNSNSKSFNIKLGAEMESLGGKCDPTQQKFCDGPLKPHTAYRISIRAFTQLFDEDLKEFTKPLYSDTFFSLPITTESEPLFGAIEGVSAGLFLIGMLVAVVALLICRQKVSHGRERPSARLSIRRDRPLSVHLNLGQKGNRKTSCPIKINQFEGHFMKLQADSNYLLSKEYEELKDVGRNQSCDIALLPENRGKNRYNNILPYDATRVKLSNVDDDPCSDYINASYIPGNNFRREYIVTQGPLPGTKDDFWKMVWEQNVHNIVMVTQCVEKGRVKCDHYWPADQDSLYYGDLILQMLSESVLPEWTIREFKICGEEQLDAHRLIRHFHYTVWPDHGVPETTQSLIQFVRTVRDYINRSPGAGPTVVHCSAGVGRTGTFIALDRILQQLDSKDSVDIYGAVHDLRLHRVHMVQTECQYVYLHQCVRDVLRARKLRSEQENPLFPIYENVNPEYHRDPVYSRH

Regarding `CCc1csc([C@H](Cc2ccc(NS(=O)(=O)O)cc2)NC(=O)[C@H](CNC(=O)OC(C)(C)C)Cc2ccccc2)n1` [AA3], the IC50 in assay [1] was 31 nM. That is a double-digit nanomolar value.

In assay [1], `COC(=O)N[C@@H](Cc1ccccc1)C(=O)N[C@@H](Cc1ccc(NS(=O)(=O)O)cc1)c1nc(-c2ccccc2)cs1` [AA21] displayed a half-inhibitory concentration (IC50) of less than 0.002 nM.

Take `CCc1csc([C@H](Cc2ccc(NS(=O)(=O)O)cc2)NC(=O)[C@H](CC(C)C)NC(=O)OC(C)(C)C)n1` [AA42]: the IC50 in assay [1] stood at 6 nM.

The molecule `CC(C)(C)OC(=O)N[C@@H](Cc1ccc(NS(=O)(=O)O)cc1)c1csc(OC(=O)C(C)(C)C)n1` [AA71] showed an IC50 in assay [1] of 555 nM.

On to ranibizumab [placebo + RBZ], for which the “IOP, fellow eye” value in assay [2] (Baseline (pre-treatment)) was 15.8 mmHg; in assay [2] (Month 1), 15.5 mmHg; in assay [2] (Month 2) it was 15.5 mmHg; in assay [2] (Month 3), 15.7 mmHg. For the same molecule, the “IOP, study eye” value was found to be 15.2 mmHg in assay [2] (Baseline (pre-treatment)), 15.0 mmHg in assay [2] (Month 1), 15.0 mmHg in assay [2] (Month 2) and 15.3 mmHg in assay [2] (Month 3).
